{"source": "patent US20230270731A1", "about": "“THERAPEUTIC COMPOUNDS AND COMPOSITIONS” (eXIthera Pharmaceuticals, Inc., priority 2019, published 2023)", "key": {"[1]": {"test": "pH-dependent stability and pH-rate profile, 10-day, 4° C. and 40° C.", "type": "physicochemical", "settings": "for stability in buffered aqueous solutions: pH=2-8, 0.1 mg/mL, 100 mM buffer, in the dark, 10 days", "procedure": "The stability Compound 1 was assessed over a 10-day period at several pH-values pH=2, 3, 4, 5, 6, 7, 8) and at two different temperatures (4° C., 40° C.). Samples of Compound 1 at c(Compound 1)=0.1 mg/mL were prepared in standard buffers (Table 2) at a buffer strength of c(buffer)=100 mM and incubated at either T=4° C. or T=40° C. (exclusion from light during incubation and analysis). The concentration of Compound 1 was assessed in such samples via HPLC analysis at an initial time point (to) and on days 1, 2, 3, 4, 7 and 10 (Δt=day×24 h). The pH was monitored at identical time points during the 10-day period.\nOver the 10-day period for both temperatures the pH of the sample solutions (FIG. 2A & FIG. 2B) was monitored and the recovery (R %) of Compound 1 (FIG. 3A & FIG. 3B) was calculated via:\nwhereas c(Compound 1, theor.)=0.1 mg/mL and c(Compound 1, actual) is determined by HPLC analysis via integration of the Compound 1 parent peak areas."}, "[2]": {"test": "Citrate and PBS vehicle formulations: pH, osmolality, concentration and recovery (HPLC)", "type": "physicochemical", "procedure": "Two additional vehicles: sodium citrate (50 mM) and PBS (commercial) were formulated at different concentrations (Table 5, Table 6). Both vehicles at any concentration were compounded using the appropriate final sodium hydroxide concentration (0.1 M NaOH stock solution).\nThe PBS vehicle was compounded to two different pH-values while the citrate vehicle was compounded at different concentrations at the same target pH and tested for its stability over the course of 24 h (rt, exclusion from light). To evaluate the potential occurrence of particles from precipitation, a filtration step (0.2 μm micro centrifugal filters) was included at each time point.\nIn case of Sample #27 the amount of HCl (aq.) (0.1 M stock) added instead of the NaOH-solution was mixed with the 10×PBS buffer and added to the aqueous solution of Compound 1 in a single step."}, "[3]": {"test": "Compatibility with vials and stoppers", "type": "physicochemical", "procedure": "The compatibility of the reconstituted Compound 1 formulation with sterile manufacturing vials and stoppers (Table 17) was tested for a contact time of Δt=1 h at c(Compound 1, target)=10 mg/mL at ambient conditions. The average values of % recovery are relative to the reconstituted drug product that has not been in contact with the tested materials."}, "[4]": {"test": "Compatibility with IV systems", "type": "physicochemical", "procedure": "The compatibility of the reconstituted Compound 1 formulation with two infusion bags (different volumes and material) and two IV lines was tested (Table 13) at c(Compound 1)=0.1 mg/mL. After injection of the reconstituted drug product solution into infusion bags filled with NS, the recovery of Compound 1 was measured i) directly after mixing with the infusion vehicle (to, Table 14) and ii) after Δt=[…] of contact time with the infusion bag (Table 15). Additionally, storage in an infusion bag at ambient temperature and lighting conditions was assessed for Δt=6 h (Table 15). The average values of % recovery are relative to the reconstituted drug product that has not been in contact with the tested materials.\nThe two IV systems were evaluated for compatibility with the reconstituted drug product solution by filling the IV lines with the diluted (NS) drug product solution and flowing Vflow through (FT)=101 mL through the respective IV system at a flow rate of 5 mL/min. Flow-through samples of Vsample=1 mL were collected i) immediately (VFT=0 mL), ii) after VFT=10 mL and iii) after VFT=[…]. Flow through samples were assayed for recovery of Compound 1 and compared to the infusion solution in the reservoir at t0 (Table 16)."}, "[5]": {"test": "Liquid injectable formulation: compounding, dilution into infusion vehicles, stability", "type": "physicochemical", "procedure": "Compounding process for liquid formulations of Compound 1, designed for dilution into infusion vehicles was developed with 3.0 mg/mL of Compound 1 (or 3.13 mg/mL Compound 1 free base equivalent), phosphate buffer solution (PBS), and pH of 6.4-7.2. The compounding process was applied over a wide range of scales (25-500 mL).\nThe compounding of the drug product required a neutralization step using 0.5N sodium hydroxide solution and buffering with PBS to adjust the pH to values compatible with an IV infusion. The compounding process also required a filtration step, which also served as aseptic processing.\nThe compounded formulations were diluted into infusion vehicles: normal saline, 5% dextrose in water (D5W), and lactated Ringer's solution (buffered and unbuffered). The dilution into normal saline was carried out at 100-fold and 600-fold dilution."}, "[6]": {"test_system": "blood coagulation components (Cardiopulmonary Bypass circuit)", "type": "in vivo", "procedure": "The following parameters and endpoints were evaluated in this study: mortality, body weight, physical, clinical pathology parameters (hematology and coagulation), coagulation time, and bioanalytical parameters.\nThe vehicle and test article were administered via intravenous (IV) infusion once on Day 1 for 135 minutes (initiated 30 minutes prior to starting the Cardiopulmonary Bypass (CPB) and continuing for 105 minutes of CPB). Group 2 animals received a […] IV bolus dose immediately prior to the start of IV infusion. Group 3, 4, and 5 animals received a 10 mg/kg IV bolus dose prior to the start of the IV infusion; with the CPB machine primed with test article at 10 μg/mL.\nInfusion of the Compound 1 was started 30 minutes prior to the animal being placed on the CPB pump. The CPB pump was primed with 0.9% saline.\nVenous and arterial sheaths were flushed with the Compound 1 at a concentration of 10 μg/mL. An IV bolus dose of the test article was administered immediately prior to the start of the infusion. Infusion of Compound 1 was started 30 minutes prior to the animal being placed on the CPB pump. The CPB […] was primed with 10 μg/mL of the Compound 1 prior to initiation of the CPB pump.\nAn IV bolus dose of the Compound 1 was administered immediately prior to the start of the infusion. Infusion of Compound 1 was started 30 minutes prior to the animal being placed on the CPB pump."}, "[7]": {"test": "Compatibility with infusion bags", "type": "physicochemical", "settings": "infus. bag1, t0 (Table 15)"}}, "note": "Like-named read-outs stand apart in the source and are kept apart here.", "data": [{"smiles": "C[C@@H](NC(=O)N1C(=O)[C@H](Cc2ccnc(N)c2)[C@H]1C(=O)O)C1CCCCC1", "note": "[Compound 1, (2S,3R)-3-[(2-aminopyridin-4-yl)methyl]-1-{[(1R)-1-cyclohexylethyl]carbamoyl}-4-oxoazetidine-2-carboxylic acid]", "values": [{"measurement": "precipitation of the drug compound", "setting": "[1]; 0.1 mg/mL, pH 2-8, 10 days", "value": "no precipitation"}, {"measurement": "stability/pH-correlation", "setting": "[1]; pH 2-8, 10 days", "value": "more stable towards a low pH and less stable towards a higher pH"}, {"measurement": "stability in buffered aqueous solutions", "setting": "[1]; 4° C.", "value": "stable"}, {"measurement": "stability in buffered aqueous solutions", "setting": "[1]; 40° C.", "value": "significant degradation"}, {"measurement": "Stability of Compound 1 in citrate buffer", "setting": "[2]; 24 h, ambient temperature", "value": "confirmed"}, {"measurement": "Precipitation of Compound 1", "setting": "[2]; citrate buffer, within 24 h", "value": "not observed"}, {"measurement": "Avg. c(Compound 1, FB, Obs.)", "setting": "[3]; Reconst. Soln., no contact with tested materials", "value": 9.32, "unit": "mg/mL"}, {"measurement": "Avg. c(Compound 1, FB, Obs.)", "setting": "[3]; Stopper, t = 1 h, target 10 mg/mL, ambient", "value": 9.28, "unit": "mg/mL"}, {"measurement": "Avg. c(Compound 1, FB, Obs.)", "setting": "[3]; Vial, t = 1 h, target 10 mg/mL, ambient", "value": 9.28, "unit": "mg/mL"}, {"measurement": "Avg. c(Compound 1, FB, Obs.)", "setting": "[4]; IV#1, VFT = 0 mL, 5 mL/min", "value": 0.09, "unit": "mg/mL"}, {"measurement": "Avg. c(Compound 1, FB, Obs.)", "setting": "[4]; IV#1, VFT = 10 mL, 5 mL/min", "value": 0.09, "unit": "mg/mL"}, {"measurement": "Avg. c(Compound 1, FB, Obs.)", "setting": "[4]; IV#1, VFT = 100 mL, 5 mL/min", "value": 0.09, "unit": "mg/mL"}, {"measurement": "Avg. c(Compound 1, FB, Obs.)", "setting": "[4]; IV#2, VFT = 0 mL, 5 mL/min", "value": 0.09, "unit": "mg/mL"}, {"measurement": "Avg. c(Compound 1, FB, Obs.)", "setting": "[4]; IV#2, VFT = 10 mL, 5 mL/min", "value": 0.09, "unit": "mg/mL"}, {"measurement": "Avg. c(Compound 1, FB, Obs.)", "setting": "[4]; IV#2, VFT = 100 mL, 5 mL/min", "value": 0.09, "unit": "mg/mL"}, {"measurement": "Avg. c(Compound 1, FB, Obs.)", "setting": "[4]; infus. bag, t0 (IV#1), reservoir", "value": 0.09, "unit": "mg/mL"}, {"measurement": "Avg. c(Compound 1, FB, Obs.)", "setting": "[4]; infus. bag, t0 (IV#2), reservoir", "value": 0.09, "unit": "mg/mL"}, {"measurement": "pH over time", "setting": "[5]; diluted into normal saline, 0.03 mg/mL, ambient, 48 hours", "value": "constant"}, {"measurement": "purity over time", "setting": "[5]; diluted into normal saline, 0.03 mg/mL, ambient, over 48 hours", "value": "unchanged"}, {"measurement": "time stable at ambient temperature", "setting": "[5]; formulation diluted into normal saline, 0.03 mg/mL", "value": "at least 48 hours"}, {"measurement": "loss of Compound 1 in filtration step of compounding", "setting": "[5]; liquid formulation 3.0 mg/mL, PBS, pH 6.4-7.2", "value": "minimal loss or no loss"}, {"measurement": "nominal degradation", "setting": "[5]; liquid formulations, 2-8° C., at least one week", "value": "< 4", "unit": "%"}, {"measurement": "relation between plasma concentration and aPTT", "setting": "[6]; FIG. 12", "value": "correlation"}, {"measurement": "aPTT", "setting": "[6]; all groups, following cessation of infusion and CPB", "value": "trended towards baseline values, but remained moderately prolonged"}, {"measurement": "prolongations in aPTT", "setting": "[6]; course during infusion and CPB", "value": "persisted throughout Compound 1 infusion and CPB"}, {"measurement": "morbidity or mortality", "setting": "[6]; dog, in vivo", "value": "not associated with any increases in morbidity or mortality"}, {"measurement": "survival", "setting": "[6]; dog, in vivo", "value": "All animals survived"}, {"measurement": "aPTT", "setting": "[6]; during Compound 1 infusion and prior to CPB, all animals", "value": "moderately to markedly prolonged"}, {"measurement": "prevention of activation of blood coagulation in components of cardiopulmonary bypass", "setting": "[6]; hound CPB model", "value": "successful in preventing the activation of blood coagulation"}, {"measurement": "selectivity of anticoagulant effects", "setting": "[6]; hound CPB model, coagulation parameters", "value": "selective to inhibition of activated partial thromboplastin time (aPTT)"}, {"measurement": "pressure gradient across the membrane oxygenator", "setting": "[6]; multiple doses, IV infusion, CPB run", "value": "stayed consistent through the entire run"}, {"measurement": "Avg. c(Compound 1, FB, Obs.)", "setting": "[7]", "value": 0.09, "unit": "mg/mL"}]}]}
